Literature values as cited in patent US8338072B2, “Resist composition, resist pattern forming process, and method for manufacturing semiconductor device” (Fujitsu Limited, priority 2006, dated 2012).
Like-named read-outs stand apart in the source and are kept apart here.

Row | Compound | pKa (values for example additives) | pKa (Table 1, additives 4A to 4F)
1 | CCCC(=O)O [butyric acid] | 4.57 | 
2 | NC1CCCC1 [cyclopentylamine] | 10.56 | 
3 | NCc1ccccc1O [2-hydroxybenzylamine] | 8.63 | 
4 | NCCN [Example 4D, Ethylenediamine] | 7.12 | 7.12
5 | CCCCCCN [Example 4E, Hexylamine] |  | 10.85
6 | CC(O)C(=O)O (stereo not shown) [Example 4B, Lactic acid] |  | 4.57
7 | NC1CCCCC1 [cyclohexylamine] | 10.62 | 
8 | CCCCCN [Example 4F, Pentylamine] | 10.93 | 10.93

Other lines, results leading:

Row | pKa (values for example additives) | pKa (Table 1, additives 4A to 4F) | Compound
9 | 5.17 |  | CCCCC(=O)O [valeric acid]
10 | 13.65 |  | c1ccc(Nc2ccccc2)cc1 [diphenylamine]
11 | 3.07 |  | O=C(O)/C=C/C(=O)O [fumaric acid]
12 | 10.93 |  | CCCN [propylamine]
13 | 5.80-6.10 |  | methylpyridine
14 | 3.99 |  | O=C(O)CCC(=O)O [succinic acid]
